Source: patent US12582731B2, “Method to decontaminate solid surface” (BIOMONETA RESEARCH PVT LTD, priority 2022, dated 2026)
“And” between values parts separate entries of the source, which are not always exact repeats. Equal entries are not always repeated.

How the values were obtained:
Type in all cases: cell-based
[1] = test system: microbial load; experiment: Microbial load reduction on CTAB-coated polyester cotton fabric, electric field with varying capacitance; conditions: for Microbial Load Reduction (Log10 Scale): polyester cotton fabric 90:10, 0.02±0.005% w/v coating, electric field 4 kV/cm DC
Protocol: The effect of QAC coating and varying electric field application on solid surfaces was analysed. The solid surface analysed was polyester cotton fabric in the ratio 90:10. The procedure for coating of QAC (CTAB) onto the said polyester cotton fabric was identical to the procedure described in Example 1. The CTAB concentration employed was 0.02±0.005% w/v and the final coated amount of QAC (CTAB) was between 0.01-0.05 mg/cm^2 of the solid surface. The electric field in this experiment was applied via. switch mode power supply (SMPS).

[2] = test system: microbial load; experiment: Microbial load reduction on QAC-coated cotton cloth with or without electric field; conditions: for Microbial Load Reduction (Log10 Scale): cotton cloth coated with 0.01% w/v
Protocol: The effect of QAC coating and electric field application on flexible solid surfaces was analysed. The solid surface analysed was fabric (cotton cloth). The procedure for coating of QAC (CTAB or benzalkonium chloride) onto the cotton cloth was identical to the procedure described in Example 1. The final coated amount of QAC (CTAB or benzalkonium chloride) was between 0.01-0.05 mg/cm^2 of the solid surface. The electric field in this experiment was applied via. switch mode power supply (SMPS) with a voltage of 4 kV/cm coupled with a capacitance of 0.05 μF for various time-periods.
Reduction in microbial load was analysed using different methods.

[3] = test system: microbial load; experiment: Microbial load reduction on CTAB-coated polyester cotton fabric, electric field with varying voltage; conditions: for Microbial load reduction (Log10 scale) at 10 mins: polyester cotton fabric, 0.02±0.005% w/v coating, capacitance 0.05 μF
Protocol: Another set of experiments were conducted wherein the procedure for coating of QAC (CTAB) onto the polyester cotton fabric was identical to the procedure described in Example 1. The CTAB concentration employed was 0.02±0.005% w/v and the final coated amount of QAC (CTAB) was between 0.01-0.05 mg/cm^2 of the solid surface. The electric field in this experiment was applied via. switch mode power supply (SMPS).

[4] = test system: microbial load; experiment: Microbial load reduction on cotton cloth coated with quaternary ammonium compound alone; conditions: no electric field
Protocol: The solid surface (cotton cloth) was suspended in a solution containing cetyltrimethylammonium bromide (CTAB) or alkyl dimethyl benzyl ammonium chloride (benzalkonium chloride) at various concentrations for about 2 hours. The solid surfaces were then heat dried in a furnace where the temperature was set at about 80° C., for about 8 hours. Once dried, the solid surfaces coated with QAC were ready to be used for various applications.
Reduction in microbial load was analysed at different concentrations of QACs.

[5] = test system: microbial load; experiment: Microbial load reduction on QAC-coated metal surface (aluminium plate) with or without electric field
Protocol: The effect of QAC coating and electric field application on non-flexible/hard solid surfaces was analysed. The solid surface analysed was a metal surface (aluminium plate). The coating procedure of QAC (cetrimonium salt—CTAB) was identical to the procedure described in Example 1. The final coated amount of CTAB was between 0.01-0.05 mg/cm^2 of the solid surface. The electric field in this experiment was applied via. switch mode power supply (SMPS) with a voltage of 4 kV/cm coupled with a capacitance of 0.05 μF for various time-periods.
It was observed that when the metal was coated with low concentration of cetrimonium salt (CTAB) followed by application of electric field, the subjected microbial load was completely eliminated (>7 log10 reduction in microbial load or >99.99999% reduction in microbial load) within 10 minutes [Experiment No. 4]. […] Lastly, under normal conditions, when the metal was left undisturbed, the microbial load remained largely unaltered over a period of 30 minutes [Experiment No. 1].

CCCCCCCCCCCCCCCC[N+](C)(C)C.[Br-] [CTAB, cetyltrimethylammonium bromide]
reduction in the microbial load ([1]; coating followed by electric field at capacitance 0.00025 μF or 0.000025 μF (Experiments 4 and 5)): a notable reduction in the microbial load was observed only around 5 minutes
Microbial Load Reduction (Log10 Scale) ([1]; capacitance 0.000025 μF, 3 mins): 1.01 Log10
Microbial Load Reduction (Log10 Scale) ([1]; capacitance 0.000025 μF, 4 mins): 2.09 Log10
Microbial Load Reduction (Log10 Scale) ([1]; capacitance 0.000025 μF, 5 mins): 3.20 Log10
Microbial Load Reduction (Log10 Scale) ([1]; capacitance 0.00025 μF, 3 mins): 1.01 Log10
Microbial Load Reduction (Log10 Scale) ([1]; capacitance 0.00025 μF, 4 mins): 3.20 Log10
Microbial Load Reduction (Log10 Scale) ([1]; capacitance 0.00025 μF, 5 mins): 4.44 Log10
Microbial Load Reduction (Log10 Scale) ([1]; capacitance 0.0025 μF, 3 mins): 2.12 Log10
Microbial Load Reduction (Log10 Scale) ([1]; capacitance 0.0025 μF, 4 mins): 3.27 Log10
Microbial Load Reduction (Log10 Scale) ([1]; capacitance 0.0025 μF, 5 mins): 6.78 Log10
Microbial Load Reduction (Log10 Scale) ([1]; capacitance 0.025 μF, 3 mins): 4.32 Log10
Microbial Load Reduction (Log10 Scale) ([1]; capacitance 0.025 μF, 4 mins): 6.78 Log10
Microbial Load Reduction (Log10 Scale) ([1]; capacitance 0.025 μF, 5 mins): 6.78 Log10
Microbial Load Reduction (Log10 Scale) ([1]; capacitance 0.05 μF, 3 mins): 4.44 Log10
Microbial Load Reduction (Log10 Scale) ([1]; capacitance 0.05 μF, 4 mins): 6.78 Log10
Microbial Load Reduction (Log10 Scale) ([1]; capacitance 0.05 μF, 5 mins): 6.78 Log10
log10 reduction in microbial load ([2]; coated cotton cloth not subjected to electric field, until 30 minutes (Experiment 1 Trial 1 and 3)): ≤ 2.16 log10
Microbial Load Reduction (Log10 Scale) ([2]; With Electric Field (SMPS, 4 kV/cm, 0.05 μF), 0 mins): 0.00 Log10
Microbial Load Reduction (Log10 Scale) ([2]; With Electric Field (SMPS, 4 kV/cm, 0.05 μF), 10 mins): 7.48 Log10 and 7.30 Log10
Microbial Load Reduction (Log10 Scale) ([2]; With Electric Field (SMPS, 4 kV/cm, 0.05 μF), 30 mins): 7.48 Log10 and 7.30 Log10
Microbial Load Reduction (Log10 Scale) ([2]; Without Electric Field, 0 mins): 0.00 Log10
Microbial Load Reduction (Log10 Scale) ([2]; Without Electric Field, 10 mins): 1.09 Log10 and 1.06 Log10
Microbial Load Reduction (Log10 Scale) ([2]; Without Electric Field, 30 mins): 2.16 Log10 and 2.15 Log10
reduction in the microbial load ([3]; coating followed by electric field at voltage lower than 2 kV/cm (0.5, 0.75, 1 or 1.25 kV/cm)): no notable reduction in the microbial load
Microbial load reduction (Log10 scale) at 10 mins ([3]; applied voltage 0.5 kV/cm): 1.18 Log10
Microbial load reduction (Log10 scale) at 10 mins ([3]; applied voltage 0.75 kV/cm): 1.22 Log10
Microbial load reduction (Log10 scale) at 10 mins ([3]; applied voltage 1 kV/cm): 1.44 Log10
Microbial load reduction (Log10 scale) at 10 mins ([3]; applied voltage 1.25 kV/cm): 1.68 Log10
Microbial load reduction (Log10 scale) at 10 mins ([3]; applied voltage 2 kV/cm): 7.68 Log10
Microbial load reduction (Log10 scale) at 10 mins ([3]; applied voltage 2.5 kV/cm): 8.78 Log10
Microbial load reduction (Log10 scale) at 10 mins ([3]; applied voltage 3 kV/cm): 9.42 Log10
Microbial Load Reduction (Log10 Scale) ([4]; cotton cloth coated with 0.01% w/v, 0 mins): 0.00 Log10
Microbial Load Reduction (Log10 Scale) ([4]; cotton cloth coated with 0.01% w/v, 10 mins): 1.11 Log10
Microbial Load Reduction (Log10 Scale) ([4]; cotton cloth coated with 0.01% w/v, 30 mins): 2.52 Log10
Microbial Load Reduction (Log10 Scale) ([4]; cotton cloth coated with 0.01% w/v, 45 mins): 4.35 Log10
Microbial Load Reduction (Log10 Scale) ([4]; cotton cloth coated with 0.01% w/v, 60 mins): 7.60 Log10
Microbial Load Reduction (Log10 Scale) ([4]; cotton cloth coated with 0.01% w/v, 90 mins): 7.60 Log10
Microbial Load Reduction (Log10 Scale) ([4]; cotton cloth coated with 0.05% w/v, 0 mins): 0.00 Log10
Microbial Load Reduction (Log10 Scale) ([4]; cotton cloth coated with 0.05% w/v, 10 mins): 1.18 Log10
Microbial Load Reduction (Log10 Scale) ([4]; cotton cloth coated with 0.05% w/v, 30 mins): 2.54 Log10
Microbial Load Reduction (Log10 Scale) ([4]; cotton cloth coated with 0.05% w/v, 45 mins): 5.12 Log10
Microbial Load Reduction (Log10 Scale) ([4]; cotton cloth coated with 0.05% w/v, 60 mins): 7.32 Log10
Microbial Load Reduction (Log10 Scale) ([4]; cotton cloth coated with 0.05% w/v, 90 mins): 7.32 Log10
Microbial Load Reduction (Log10 Scale) ([4]; cotton cloth coated with 0.1% w/v, 0 mins): 0.00 Log10
Microbial Load Reduction (Log10 Scale) ([4]; cotton cloth coated with 0.1% w/v, 10 mins): 7.41 Log10
Microbial Load Reduction (Log10 Scale) ([4]; cotton cloth coated with 0.1% w/v, 30 mins): 7.41 Log10
Microbial Load Reduction (Log10 Scale) ([4]; cotton cloth coated with 0.1% w/v, 45 mins): 7.41 Log10
Microbial Load Reduction (Log10 Scale) ([4]; cotton cloth coated with 0.1% w/v, 60 mins): 7.41 Log10
Microbial Load Reduction (Log10 Scale) ([4]; cotton cloth coated with 0.1% w/v, 90 mins): 7.41 Log10
Microbial Load Reduction (Log10 Scale) ([4]; cotton cloth coated with 0.25% w/v, 0 mins): 0.00 Log10
Microbial Load Reduction (Log10 Scale) ([4]; cotton cloth coated with 0.25% w/v, 10 mins): 7.45 Log10
Microbial Load Reduction (Log10 Scale) ([4]; cotton cloth coated with 0.25% w/v, 30 mins): 7.45 Log10
Microbial Load Reduction (Log10 Scale) ([4]; cotton cloth coated with 0.25% w/v, 45 mins): 7.45 Log10
Microbial Load Reduction (Log10 Scale) ([4]; cotton cloth coated with 0.25% w/v, 60 mins): 7.45 Log10
Microbial Load Reduction (Log10 Scale) ([4]; cotton cloth coated with 0.25% w/v, 90 mins): 7.45 Log10
Microbial Load Reduction (Log10 Scale) ([4]; cotton cloth coated with 0.5% w/v, 0 mins): 0.00 Log10
Microbial Load Reduction (Log10 Scale) ([4]; cotton cloth coated with 0.5% w/v, 10 mins): 7.00 Log10
Microbial Load Reduction (Log10 Scale) ([4]; cotton cloth coated with 0.5% w/v, 30 mins): 7.00 Log10
Microbial Load Reduction (Log10 Scale) ([4]; cotton cloth coated with 0.5% w/v, 45 mins): 7.00 Log10
Microbial Load Reduction (Log10 Scale) ([4]; cotton cloth coated with 0.5% w/v, 60 mins): 7.00 Log10
Microbial Load Reduction (Log10 Scale) ([4]; cotton cloth coated with 0.5% w/v, 90 mins): 7.00 Log10
Microbial Load Reduction (Log10 Scale) ([4]; cotton cloth coated with 0.75% w/v, 0 mins): 0.00 Log10
Microbial Load Reduction (Log10 Scale) ([4]; cotton cloth coated with 0.75% w/v, 10 mins): 7.78 Log10
Microbial Load Reduction (Log10 Scale) ([4]; cotton cloth coated with 0.75% w/v, 30 mins): 7.78 Log10
Microbial Load Reduction (Log10 Scale) ([4]; cotton cloth coated with 0.75% w/v, 45 mins): 7.78 Log10
Microbial Load Reduction (Log10 Scale) ([4]; cotton cloth coated with 0.75% w/v, 60 mins): 7.78 Log10
Microbial Load Reduction (Log10 Scale) ([4]; cotton cloth coated with 0.75% w/v, 90 mins): 7.78 Log10
Microbial Load Reduction (Log10 Scale) ([5]; Metal (aluminium plate) + QAC 0.01% w/v + Electric Field (SMPS, 4 kV/cm, 0.05 μF), 0 mins): 0.00 Log10
Microbial Load Reduction (Log10 Scale) ([5]; Metal (aluminium plate) + QAC 0.01% w/v + Electric Field (SMPS, 4 kV/cm, 0.05 μF), 5 mins): 5.55 Log10
Microbial Load Reduction (Log10 Scale) ([5]; Metal (aluminium plate) + QAC 0.01% w/v + Electric Field (SMPS, 4 kV/cm, 0.05 μF), 10 mins): 7.51 Log10
Microbial Load Reduction (Log10 Scale) ([5]; Metal (aluminium plate) + QAC 0.01% w/v + Electric Field (SMPS, 4 kV/cm, 0.05 μF), 20 mins): 7.51 Log10
Microbial Load Reduction (Log10 Scale) ([5]; Metal (aluminium plate) + QAC 0.01% w/v + Electric Field (SMPS, 4 kV/cm, 0.05 μF), 30 mins): 7.51 Log10
Microbial Load Reduction (Log10 Scale) ([5]; Metal (aluminium plate) + QAC 0.01% w/v, no electric field, 0 mins): 0.00 Log10
Microbial Load Reduction (Log10 Scale) ([5]; Metal (aluminium plate) + QAC 0.01% w/v, no electric field, 5 mins): 0.22 Log10
Microbial Load Reduction (Log10 Scale) ([5]; Metal (aluminium plate) + QAC 0.01% w/v, no electric field, 10 mins): 0.42 Log10
Microbial Load Reduction (Log10 Scale) ([5]; Metal (aluminium plate) + QAC 0.01% w/v, no electric field, 20 mins): 0.57 Log10
Microbial Load Reduction (Log10 Scale) ([5]; Metal (aluminium plate) + QAC 0.01% w/v, no electric field, 30 mins): 0.95 Log10
reduction in the microbial load ([5]; metal coated with CTAB alone, at 30 minutes (Experiment No. 3)): no significant reduction in the microbial load
